Experimental data: patent US11946094B2, “Combination therapies and methods of use thereof” (Augusta University Research Institute, Inc., priority 2017, dated 2024)
Where two headings read alike, the source gives them in different places.

System: OVCAR-8 cells
Experiment: Drug-siRNA combination screen: 346-compound anticancer library at 100 nM, CCK-8 viability
Settings: for synergy / antagonism of drug with gene knockdowns, in words: panel of 18 siRNA knockdowns
[1] = OVCAR-8, drug 100 nM plus siRNA knockdown of each of 18 genes, distance VAB−VA×VB in SD, single gene contributes at most +5 / −5, negative = synergy, positive = antagonism
[2] = OVCAR-8, drug 100 nM, siRNA knockdown

Molecule | Score (sum of observed SD values for 18 genes) [1] [SD] | further results
CC(=O)Nc1cccc(-n2c(=O)n(C3CC3)c(=O)c3c(Nc4ccc(I)cc4F)n(C)c(=O)c(C)c32)c1 [Trametinib] | −27.77 | –
Cn1cnc(N)c2ncnc1-2 [3-Methyladenine] | −24.92 | –
O=C(NCCCNc1nc(Nc2cccc(NC(=O)N3CCCC3)c2)ncc1I)c1cccs1 [BX-795] | −14.94 | –
CO[C@@H](C(=O)N1Cc2n[nH]c(NC(=O)c3ccc(N4CCN(C)CC4)cc3)c2C1)c1ccccc1 [Danusertib] | −2.99 | –
CC1(C)CNc2cc(NC(=O)c3cccnc3NCc3ccncc3)ccc21 [Motesanib Diphosphate] | −12.16 | –
C[C@@H]1CCN(C(=O)CC#N)C[C@@H]1N(C)c1ncnc2[nH]ccc12 [Tofacitinib] | −13.15 | –
C[C@@H](N)[C@H]1CC[C@H](C(=O)Nc2ccncc2)CC1.Cl.Cl [Y-27632 2HCI] | −28.91 | –
C[C@H](NC(=O)Cc1cc(F)cc(F)c1)C(=O)N[C@H](C(=O)OC(C)(C)C)c1ccccc1 [DAPT-(GSI-IX)] | 12.69 | –
Cc1ccc(-n2nc(C(C)(C)C)cc2NC(=O)Nc2ccc(OCCN3CCOCC3)c3ccccc23)cc1 [Doramapimod] | -50.99 | number of genes (of 18) whose knockdown synergizes with the drug [2]: 11 genes
CS(=O)(=O)c1cccc(CNc2nc(Nc3ccc4c(c3)CCC(=O)N4)ncc2C(F)(F)F)c1 [PF 573228] | −28.79 | –
O=S(=O)(O)CCS [Mesna] | −15.88 | –
CCC(C)(C)C(=O)O[C@H]1C[C@@H](C)C=C2C=C[C@H](C)[C@H](CC[C@@H]3C[C@@H](O)CC(=O)O3)[C@H]21 [Simvastatin] | −20.34 | –
O=C(Nc1ccccc1-c1cn2c(CN3CCNCC3)csc2n1)c1cnc2ccccc2n1 [SRT1720] | −34.27 | –
CC(=O)NCC(=O)N1[C@@H]2CC[C@H]1c1ccc(Nc3ncc(C(F)(F)F)c(NC4CCC4)n3)cc12 [PF-03814735] | −30.13 | synergy / antagonism of drug with gene knockdowns, in words (OVCAR-8, drug 100 nM): significant synergy
COc1cc(Nc2c(C#N)cnc3cc(OCCCN4CCN(C)CC4)c(OC)cc23)c(Cl)cc1Cl [Bosutinib] | −23.5 | –
Cc1ccc2c(=O)c3cccc(CC(=O)O)c3oc2c1C [Vadimezan] | −28.75 | –
CC(C)c1ccccc1Cc1cc(C(=O)Nc2ccc(S(=O)(=O)c3ccccc3C(C)(C)C)cc2)c(O)c(O)c1O [TW-37] | −36.72 | –
Medroxyprogesterone | −35.82 | –
Cc1c[nH]c(-c2cnc(NCCNc3ccc(C#N)cn3)nc2-c2ccc(Cl)cc2Cl)n1 [CHIR-99021] | −2.4 | –
Cl.Cl.NC1(c2ccc(-c3nc4ccc5n[nH]c(=O)n5c4cc3-c3ccccc3)cc2)CCC1 [MK-2206 2HCI] | −23.29 | –
CC1(C)CCC(c2ccc(Cl)cc2)=C(CN2CCN(c3ccc(C(=O)NS(=O)(=O)c4ccc(N[C@H](CCN5CCOCC5)CSc5ccccc5)c(S(=O)(=O)C(F)(F)F)c4)cc3)CC2)C1 [Navitoclax] | −13.79 | –
O=C(O)c1ccc(-c2c[nH]c3ncc(-c4ccccc4)cc23)cc1C1CCCC1 [GSK650394] | 12.12 | –
CCN[C@H]1C[C@H](C)S(=O)(=O)c2sc(S(N)(=O)=O)cc21.Cl [Dorzolamide HCI] | 9.66 | –
CCN(CC)C(=S)SSC(=S)N(CC)CC [Disulfiram] | 37.83 | –

Molecule | Score (sum of observed SD values for 18 genes) [1] [SD] | further results
CN1CCN(c2ccc3nc(-c4c(N)c5c(F)cccc5[nH]c4=O)[nH]c3c2)CC1 [Dovitinib] | −22.96 | –
C[C@]12CCC(=O)C(O)=C1CC[C@@H]1[C@@H]2CC[C@]2(C)C(=O)CC[C@@H]12 [Formestane] | −14.97 | –
N.N.O=C([O-])C1(C(=O)[O-])CCC1.[Pt+2] [Carboplatin] | −24.62 | –
NC(=O)C1CCCc2c1[nH]c1ccc(Cl)cc21 (stereo not shown) [EX 527] | −22.45 | –
Nc1ccn([C@@H]2O[C@H](CO)[C@@H](O)C2(F)F)c(=O)n1 [Gemcitibine] | 34.12 | –
CCNC(=O)c1noc(-c2cc(C(C)C)c(O)cc2O)c1-c1ccc(CN2CCOCC2)cc1 [AUY922] | 8.46 | –
COc1cc2ncnc(Nc3ccc(F)c(Cl)c3)c2cc1NC(=O)/C=C/CN1CCCCC1 [Dacomitinib] | -68.29 | number of genes (of 18) with high synergy with the drug [2]: 15 genes
COc1cc2c(N3CCN(C(=O)Nc4ccc(OC(C)C)cc4)CC3)ncnc2cc1OCCCN1CCCCC1 [Tandutinib] | −14.99 | –
Cc1ccc(NC(=O)c2cccc(C(C)(C)C#N)c2)cc1Nc1ccc2ncn(C)c(=O)c2c1 [AZ628] | −43.85 | synergy / antagonism of drug with gene knockdowns, in words (OVCAR-8, drug 100 nM): synergistic with knockdown of ten genes
Maraviroc | – | Score (sum of observed SD values for 18 genes): 0.11 SD
OCCn1cc(-c2ccc3c(c2)CC/C3=N\O)c(-c2ccncc2)n1 [GDC - 0879] | 23.19 | –
CCc1ccc(CCOc2ccc(CC3SC(=O)NC3=O)cc2)nc1 (stereo not shown) [Pioglitazone] | −37.6 | –
CC(C)C[C@H](NC(=O)[C@@H](O)[C@H](N)Cc1ccccc1)C(=O)O [Ubinimex] | −17.36 | –
Cc1ccc(C(=O)N(CCCN)[C@@H](c2oc3cc(Cl)ccc3c(=O)c2Cc2ccccc2)C(C)C)cc1 [SB 743921] | −4.09 | –
Cc1ccc([C@@H]2O[C@H](CO)[C@@H](O)[C@H](O)[C@H]2O)cc1Cc1ccc(-c2ccc(F)cc2)s1 [Canagliflozin] | −25.46 | –
O=c1[nH]c(=O)n(C2CCCO2)cc1F (stereo not shown) [Ftorafur] | −9.75 | –
CO[C@H]1C[C@@H]2CC[C@@H](C)[C@@](O)(O2)C(=O)C(=O)N2CCCC[C@H]2C(=O)O[C@H]([C@H](C)C[C@@H]2CC[C@@H](OC(=O)C(C)(CO)CO)[C@H](OC)C2)CC(=O)[C@H](C)/C=C(\C)[C@@H](O)[C@@H](OC)C(=O)[C@H](C)C[C@H](C)/C=C/C=C/C=C/1C [Temsirolimus] | -56.85 | –
AZ 3146 | −22.56 | –
CC(C)C[C@@H](C(=O)N[C@H](C(=O)OC1CCCC1)c1ccccc1)[C@H](O)C(=O)NO [Tosedostat] | 5.66 | –
C[C@]1(O)C[C@@H](c2nc(-c3ccc4ccc(-c5ccccc5)nc4c3)c3c(N)nccn32)C1 [Linsitinib] | −28.72 | –
N#CCNC(=O)c1ccc(-c2ccnc(Nc3ccc(N4CCOCC4)cc3)n2)cc1 [Momelotenib] | −0.52 | –
NCCC(O)(P(=O)(O)O)P(=O)(O)O [Pamidronate Disodium] | −2.39 | –
Cc1cnc(NC(=O)Nc2cc(Br)c(C)cc2OC[C@@H]2CNCCO2)cn1 [LY2603618] | -52.09 | synergy / antagonism of drug with gene knockdowns, in words (OVCAR-8, drug 100 nM): high level of synergism
